This note sets out measurements from patent publication US12220437B2, “Oncolytic virus improved in safety and anticancer effect” (BIONOXX INC., priority 2017, dated 2025).

One test deals with NCI-H460 cells. As to the kind of experiment: Annexin V/PI staining, flow cytometry (FACS). Type of test: cell-based, human. The method, then: (§1) In addition, the apoptosis and necrosis according to the combined administration of OTS-412 and GCV were confirmed by flow cytometry (FACS). Specifically, A549 and NCI-H460 cell lines were treated with GCV alone, OTS-412 alone, or a combination of OTS-412 and GCV, respectively, and the cells were subjected to Annexin V/PI staining followed by flow cytometry. At this time, the viability of cell was determined based on the facts that: both Annexin V and PI are negative in living cells; Annexin V is positive in the early stage of apoptosis, wherein the permeability of cell membrane changes; and both Annexin V and PI are positive at the end of apoptosis, wherein the nucleus is exposed by destruction of the cell membrane.
A general note: Flow cytometry measures light scatter and fluorescence of single cells or particles in a stream.

The subject of the next test is A549 cells. Kind of test: Annexin V/PI staining, flow cytometry (FACS). It is filed as cell-based, human. Here is the method: as §1

As to `Nc1nc2c(ncn2COC(CO)CO)c(=O)[nH]1` [GCV, ganciclovir], the apoptosis rate entry in the test on NCI-H460 cells and in the test on A549 cells was “not confirmed” in each case.
